Values quoted from earlier work in article PMC12525602, “Identification of Selective α-Glucosidase Inhibitors via Virtual Screening with Machine Learning” (Molecules, 2025).

System: α-glucosidase
Settings: 300-compound dataset of reported inhibitors and ineffective compounds, Table S4; cited from earlier work

Compound	activity (label in modeling dataset)
C[C@@H]1O[C@@H](Oc2cc(O)c3c(=O)c(O[C@@H]4O[C@@H](C)[C@H](O)[C@@H](O)[C@H]4O)c(-c4ccc(O)cc4)oc3c2)[C@H](O)[C@H](O)[C@H]1O [compound 0, C[C@H]1[C@H](O)[C@@H](O)[C@@H](O)[C@H](OC2=CC(O)=C3C(OC(C4=CC=C(O)C=C4)=C(O[C@H]5[C@H](O)[C@H](O)[C@@H](O)[C@H](C)O5)C3=O)=C2)O1]	0
COc1cc(-c2oc3cc(O)cc(O)c3c(=O)c2O[C@@H]2O[C@H](CO)[C@@H](O)[C@H](O)[C@H]2O)ccc1O [compound 1, COC1=C(O)C=CC(C2=C(O[C@H]3[C@H](O)[C@@H](O)[C@H](O)[C@@H](CO)O3)C(C4=C(O)C=C(O)C=C4O2)=O)=C1]	0
COc1cc(-c2oc3cc(O)cc(O)c3c(=O)c2O[C@@H]2O[C@H](CO[C@@H]3O[C@@H](C)[C@H](O)[C@@H](O)[C@H]3O)[C@@H](O)[C@H](O)[C@H]2O)ccc1O [compound 2, C[C@H]1[C@H](O)[C@@H](O)[C@@H](O)[C@H](OC[C@@H]2[C@@H](O)[C@H](O)[C@@H](O)[C@H](OC3=C(C4=CC(OC)=C(O)C=C4)OC5=CC(O)=CC(O)=C5C3=O)O2)O1]	0
COc1ccc(S(=O)(=O)NNC(=O)c2cc3cc(F)ccc3[nH]2)cc1OC [compound 3, FC1=CC=C(NC(C(NNS(=O)(C2=CC(OC)=C(OC)C=C2)=O)=O)=C3)C3=C1]	0
Cc1ccc(Nc2nnc(-c3cc4cc(C#N)ccc4[nH]3)s2)cc1 [compound 4, CC(C=C1)=CC=C1NC(S2)=NN=C2C3=CC4=CC(C#N)=CC=C4N3]	0

Same assay, conditions: activity label of the modeling dataset (Table S5), α-glucosidase; 1 = active, 0 = inactive; cited from earlier work

Compound	activity
C[C@@H]1O[C@@H](Oc2cc(O)c3c(=O)c(O[C@@H]4O[C@@H](C)[C@H](O)[C@@H](O)[C@H]4O)c(-c4ccc(O)cc4)oc3c2)[C@H](O)[C@H](O)[C@H]1O [compound 0, C[C@H]1[C@H](O)[C@@H](O)[C@@H](O)[C@H](OC2=CC(O)=C3C(OC(C4=CC=C(O)C=C4)=C(O[C@H]5[C@H](O)[C@H](O)[C@@H](O)[C@H](C)O5)C3=O)=C2)O1]	0
COc1cc(-c2oc3cc(O)cc(O)c3c(=O)c2O[C@@H]2O[C@H](CO)[C@@H](O)[C@H](O)[C@H]2O)ccc1O [compound 1, COC1=C(O)C=CC(C2=C(O[C@H]3[C@H](O)[C@@H](O)[C@H](O)[C@@H](CO)O3)C(C4=C(O)C=C(O)C=C4O2)=O)=C1]	0
COc1cc(-c2oc3cc(O)cc(O)c3c(=O)c2O[C@@H]2O[C@H](CO[C@@H]3O[C@@H](C)[C@H](O)[C@@H](O)[C@H]3O)[C@@H](O)[C@H](O)[C@H]2O)ccc1O [compound 2, C[C@H]1[C@H](O)[C@@H](O)[C@@H](O)[C@H](OC[C@@H]2[C@@H](O)[C@H](O)[C@@H](O)[C@H](OC3=C(C4=CC(OC)=C(O)C=C4)OC5=CC(O)=CC(O)=C5C3=O)O2)O1]	0
COc1ccc(S(=O)(=O)NNC(=O)c2cc3cc(F)ccc3[nH]2)cc1OC [compound 3, FC1=CC=C(NC(C(NNS(=O)(C2=CC(OC)=C(OC)C=C2)=O)=O)=C3)C3=C1]	0
Cc1ccc(Nc2nnc(-c3cc4cc(C#N)ccc4[nH]3)s2)cc1 [compound 4, CC(C=C1)=CC=C1NC(S2)=NN=C2C3=CC4=CC(C#N)=CC=C4N3]	0
O=C(O)c1ccc(-c2nc3ccc(C(=O)c4ccccc4)cc3[nH]2)cc1 [compound 5]	0
Cc1ccc(-c2cc(-c3cccnc3)c(C#N)c(N)c2C#N)cc1 [compound 6]	0
N#Cc1c(-c2cccc(Cl)c2)cc(-c2ccco2)c(C#N)c1N [compound 7]	0
O=C(c1ccccc1)c1ccc2nc(-c3ccc(Br)cc3)[nH]c2c1 [compound 8]	0
O=C(c1ccccc1)c1ccc2nc(-c3ccc(O)cc3O)[nH]c2c1 [compound 9]	0
N#Cc1c(-c2ccc(-c3ccccc3)cc2)cc(-c2ccc([N+](=O)[O-])cc2)c(C#N)c1N [compound 10]	0
N#Cc1ccc2[nH]c(-c3nnc(Nc4ccccc4Br)s3)cc2c1 [compound 11]	0
N#Cc1c(-c2ccc(Cl)cc2)cc(-c2cccc(Cl)c2)c(C#N)c1N [compound 12]	0
CC1CCCN(c2ccc(/C=N/Nc3nc(-c4ccc(Cl)cc4)cs3)cc2)C1 (stereo not shown) [compound 13]	0
Cc1ccccc1Nc1nnc(-c2cc3cc(C#N)ccc3[nH]2)s1 [compound 14]	0
CC1CCN(c2ccc(/C=N/Nc3nc(-c4ccc(Br)cc4)cs3)cc2)CC1 [compound 15]	0
Clc1cccc(Cn2cc(CSc3nnc(COc4cccc5cccnc45)o3)nn2)c1 [compound 16]	0
COc1ccc(-n2cc(CSc3nnc(COc4cccc5cccnc45)o3)nn2)cc1 [compound 17]	0
N#Cc1c(-c2ccncc2)cc(-c2ccc([N+](=O)[O-])cc2)c(C#N)c1N [compound 18]	0
N#Cc1c(-c2cccnc2)cc(-c2ccco2)c(C#N)c1N [compound 19]	0
Cc1ccc(-c2cc(-c3cccc([N+](=O)[O-])c3)c(C#N)c(N)c2C#N)cc1 [compound 20]	0
N#Cc1c(-c2ccc(Cl)cc2)cc(-c2ccccn2)c(C#N)c1N [compound 21]	0

Compound	activity
CC1CCN(c2ccc(/C=N/Nc3nc(-c4ccc(C#N)cc4)cs3)cc2)CC1 [compound 22]	0
N#Cc1ccc2[nH]c(-c3nnc(Nc4ccc(Cl)cc4)s3)cc2c1 [compound 23]	0
N#Cc1c(-c2ccc(Cl)cc2)cc(-c2ccco2)c(C#N)c1N [compound 24]	0
N#Cc1c(-c2ccncc2)cc(-c2cccnc2)c(C#N)c1N [compound 25]	0
Cc1ccc(-c2cc(-c3ccc([N+](=O)[O-])cc3)c(C#N)c(N)c2C#N)cc1 [compound 26]	0
CCCCCCCCCCCCCCCCCC(N)=O [compound 27]	0
N#Cc1c(-c2ccncc2)cc(-c2ccccn2)c(C#N)c1N [compound 28]	0
Fc1ccc(Cn2cc(CSc3nnc(COc4cccc5cccnc45)o3)nn2)cc1F [compound 29]	0
O=C(c1ccccc1)c1ccc2nc(-c3ccccc3O)[nH]c2c1 [compound 30]	0
O=c1c(O[C@@H]2O[C@H](CO)[C@@H](O)[C@H](O)[C@H]2O)c(-c2ccc(O)c(O)c2)oc2cc(O)cc(O)c12 [compound 31]	0
N#Cc1c(-c2ccc([N+](=O)[O-])cc2)cc(-c2cccc([N+](=O)[O-])c2)c(C#N)c1N [compound 32]	0
Brc1ccc(Cn2cc(CSc3nnc(COc4cccc5cccnc45)o3)nn2)cc1 [compound 33]	0
O=c1c(OC2OC(CO)C(O)C(O)C2O)c(-c2cc(O)c(O)c(O)c2)oc2cc(O)cc(O)c12 (stereo not shown) [compound 34]	0
Cc1ccc(-c2cc(-c3ccncc3)c(C#N)c(N)c2C#N)cc1 [compound 35]	0
N#Cc1c(-c2ccncc2)cc(-c2cccc(Cl)c2)c(C#N)c1N [compound 36]	0
N#Cc1c(-c2cccnc2)cc(-c2ccsc2)c(C#N)c1N [compound 37]	0
O=c1c(O[C@@H]2O[C@H](CO)[C@H](O)[C@H](O)[C@H]2O)c(-c2ccc(O)c(O)c2)oc2cc(O)cc(O)c12 [compound 38]	0
N[C@@H](Cc1ccccc1)C(=O)O [compound 39]	0
COc1ccc(Nc2nnc(-c3cc4cc(C#N)ccc4[nH]3)s2)cc1 [compound 40]	0
O=c1c(O[C@@H]2O[C@H](CO)[C@@H](O)[C@H](O)[C@H]2O)c(-c2ccc(O)cc2)oc2cc(O)cc(O)c12 [compound 41]	0
N#Cc1c(-c2cccnc2)cc(-c2ccccn2)c(C#N)c1N [compound 42]	0
COc1cccc(Nc2nnc(-c3cc4cc(C#N)ccc4[nH]3)s2)c1 [compound 43]	0

Same assay, conditions: activity label of the modeling dataset, Table S5 (1 = active, 0 = inactive); cited from earlier work

Compound	activity
CCCCCCCCCCCCN [compound 44]	0
C[C@@H]1O[C@@H](Oc2c(-c3ccc(O)c(O)c3)oc3cc(O)cc(O)c3c2=O)[C@H](O)[C@H](O)[C@H]1O [compound 45]	0
N#Cc1c(-c2ccc(Cl)cc2)cc(-c2cccc(Br)c2)c(C#N)c1N [compound 46]	0
Fc1cccc(CSc2nnc(COc3cccc4cccnc34)o2)c1 [compound 47]	0
N#Cc1c(-c2ccc([N+](=O)[O-])cc2)cc(-c2cccc(Br)c2)c(C#N)c1N [compound 48]	0
Clc1ccc(-n2cc(CSc3nnc(COc4cccc5cccnc45)o3)nn2)c(Cl)c1 [compound 49]	0
N#Cc1c(-c2cccc(Cl)c2)cc(-c2cccc([N+](=O)[O-])c2)c(C#N)c1N [compound 50]	0
CCCCCCSc1nnc(COc2cccc3cccnc23)o1 [compound 51]	0
Cc1ccc(S(=O)(=O)NNC(=O)c2cc3cc(F)ccc3[nH]2)cc1 [compound 53]	0
c1ccc(Cn2cc(CSc3nnc(COc4cccc5cccnc45)o3)nn2)cc1 [compound 54]	0
CCCCCSc1nnc(COc2cccc3cccnc23)o1 [compound 55]	0
O=[N+]([O-])c1ccc(Cn2cc(CSc3nnc(COc4cccc5cccnc45)o3)nn2)cc1 [compound 56]	0
BrCCSc1nnc(COc2cccc3cccnc23)o1 [compound 57]	0
Cc1cccc(C)c1-n1cc(CSc2nnc(COc3cccc4cccnc34)o2)nn1 [compound 58]	0
Cc1ccc(-n2cc(CSc3nnc(COc4cccc5cccnc45)o3)nn2)cc1 [compound 59]	0
N#Cc1ccc2[nH]c(-c3nnc(Nc4ccc([N+](=O)[O-])cc4)s3)cc2c1 [compound 60]	0
Clc1ccc(Cn2cc(CSc3nnc(COc4cccc5cccnc45)o3)nn2)c(Cl)c1 [compound 61]	0
CCSc1nnc(COc2cccc3cccnc23)o1 [compound 63]	0
O=c1c(O[C@@H]2O[C@H](CO)[C@H](O)[C@H](O)[C@H]2O)c(-c2ccc(O)cc2)oc2cc(O)cc(O)c12 [compound 65]	0
CC(C)CCC(=O)C1(O)C(O)=C(C(=O)CC(C)C)C(=O)C1CCC(C)C (stereo not shown) [compound 66]	0
CC1CCN(c2ccc(/C=N/Nc3nc(-c4ccc([N+](=O)[O-])cc4)cs3)cc2)CC1 [compound 67]	0
Cc1ccc(-c2csc(N/N=C/c3ccc(N4CCCC(C)C4)cc3)n2)cc1 (stereo not shown) [compound 68]	0
Fc1ccc(Cn2cc(CSc3nnc(COc4cccc5cccnc45)o3)nn2)cc1 [compound 69]	0
CC1CCCN(c2ccc(/C=N/Nc3nc(-c4ccc(Br)cc4)cs3)cc2)C1 (stereo not shown) [compound 70]	0
Clc1cccc(Cl)c1-n1cc(CSc2nnc(COc3cccc4cccnc34)o2)nn1 [compound 71]	0
O=[N+]([O-])c1ccc(-n2cc(CSc3nnc(COc4cccc5cccnc45)o3)nn2)cc1 [compound 72]	0
Clc1ccc(Cn2cc(CSc3nnc(COc4cccc5cccnc45)o3)nn2)cc1 [compound 73]	0
N#Cc1c(-c2ccc([N+](=O)[O-])cc2)cc(-c2cccnc2)c(C#N)c1N [compound 75]	0
CC1OC(Oc2cc(-c3oc4cc(O)cc(O)c4c(=O)c3O)cc(O)c2O)C(O)C(O)C1O (stereo not shown) [compound 76]	0
CCCCCCn1cc(CSc2nnc(COc3cccc4cccnc34)o2)nn1 [compound 77]	0
